# Literature values as cited in patent publication US20220130517A1, “PS[…] VARIOUS MENTAL HEALTH DISORDERS” (Ketamine SLC, priority 2020, published 2022).
# Tested on: mental health disorder
# Conditions: IV drip over 40 minutes, 0.5 mg/kg per session, six sessions over twelve days; some patients
smiles,measurement,value
CNC1(c2ccccc2Cl)CCCCC1=O (stereo not shown) [ketamine],relief from the symptoms of mental health disorder,some patients experience relief from the symptoms of their mental health disorder for a period of time including weeks and/or months
